Legend:
[1] = test system: Asperg. niger ATCC 16404 (mould); experiment: Microorganism count in 2% ester emulsions (Example 12, Table 1); format: cell-based; conditions: 2% emulsion, phosphate buffer pH=7.0, +37°C, Additive/ml 7943
Procedure: (§1) In addition to ester, the emulsions also comprised egg-yolk phospholipid 1,2% and sterile water. The emulsions were prepared aseptically, by emulsifying sterile-filtered ester with a sterilized dispersion of egg-yolk phospholipids. Aliquots of these emulsions were diluted with a phosphate buffer (0.01 M, pH=7.0) in the proportions of 1 and 10 respectively, so as to obtain 2-percent emulsions. Various microorganisms according to Table 1 below were added to these emulsions. The samples were then incubated at +37°C for 20 hours. Counting of the number of microorganisms was started after 2 and 20 hours, in the manner described in microbiological literature. Checks were run on a pure phosphate buffer with additives of the same microorganisms as earlier, in parallel with the aforesaid experiments, while checks were run in Tryptone Soya broth (TSB) with additions of the same microorganisms, in order to ascertain whether or not the microorganisms could survive, i.e. could grow under the ideal conditions. […]

[2] = test system: Cand. albicans ATCC 10231 (yeast); experiment: as above; format: cell-based; conditions: 2% emulsion, phosphate buffer pH=7.0, +37°C, Additive/ml 6310
Procedure: as §1

Cand. parapsil. (yeast) = experiment: as above; format: cell-based; conditions: 2% emulsion, phosphate buffer pH=7.0, +37°C, Additive/ml 5012
Procedure: as §1

E. coli ATCC 8739 = experiment: as above; format: cell-based; conditions: 2% emulsion, phosphate buffer pH=7.0, +37°C, Additive/ml 6310
Procedure: as §1

Enter. cloacae = experiment: as above; format: cell-based; conditions: 2% emulsion, phosphate buffer pH=7.0, +37°C, Additive/ml 1585
Procedure: as §1

Klebs. pneum. ATCC 25955 = experiment: as above; format: cell-based; conditions: 2% emulsion, phosphate buffer pH=7.0, +37°C, Additive/ml 1995
Procedure: as §1

Penicillium sp. (mould) = experiment: as above; format: cell-based; conditions: 2% emulsion, phosphate buffer pH=7.0, +37°C, Additive/ml 3162
Procedure: as §1

Proteus vulg. ATCC 13315 = experiment: as above; format: cell-based; conditions: 2% emulsion, phosphate buffer pH=7.0, +37°C, Additive/ml 1000
Procedure: as §1

[3] = test system: Ps. aeruginosa ATCC 19429; experiment: as above; format: cell-based; conditions: 2% emulsion, phosphate buffer pH=7.0, +37°C, Additive/ml 7943
Procedure: as §1

Serr. maresc. ATCC 14756 = experiment: as above; format: cell-based; conditions: 2% emulsion, phosphate buffer pH=7.0, +37°C, Additive/ml 6310
Procedure: as §1

Staf. aureus ATCC 6535 = experiment: as above; format: cell-based; conditions: 2% emulsion, phosphate buffer pH=7.0, +37°C, Additive/ml 5012
Procedure: as §1

Staf. epiderm. = experiment: as above; format: cell-based; conditions: 2% emulsion, phosphate buffer pH=7.0, +37°C, Additive/ml 6310
Procedure: as §1

Ulocladium sp. (mould) = experiment: as above; format: cell-based; conditions: 2% emulsion, phosphate buffer pH=7.0, +37°C, Additive/ml 2512
Procedure: as §1

[4] = test system: Staphylococcus aureus ATCC 6535; experiment: Microorganism count in 2% and 0.2% ester emulsions (Example 13); format: cell-based
Procedure: Both of the emulsions included egg-yolk phospholipide 1,2% and sterile water, in addition to ester. The emulsions were prepared aseptically, by emulsifying sterile-filtered ester with a sterilized dispersion of egg-yolk phospholipids.
Aliquots of these emulsions were diluted with phosphate buffer (0.01 M, pH=7.0), in the proportions of 1 and 100 in respective emulsions. Staphylococcus aureus ATCC 6535 was then added to the emulsions. The samples were then incubated at +37°C for 20 hours. The microorganism count was carried out after 1-5 minutes, 2 and 20 hours, in the manner described in microbiological literature. Parallel with the above experiments, a check was made on the phospholipid solution 1,2% and TSB (Tryptone soya broth), by adding Staphylococcus aureus ATCC 6535. The latter substrate was tested to ascertain whether the controlled microorganisms were viable. […] The starting concentration was about 5x10³. […] After 2 hours, the number of microorganisms was 0 and 10 respectively, and after 20 hours 0 and 0 respectively. In the samples containing 5-methyl-3-oxo-hexanoic acid ethyl ester with concentrations of 2% and 0.2%, the number of microorganisms per ml present after 1-5 minutes was 10⁴, after 2 hours 0 and 100 respectively, and after 20 hours 0 and 0 respec tively.

Energy density = format: physicochemical
[5] = Cold storage of fat emulsion (Intralipid) with ester admixture: visual inspection, pH, mean particle size; format: physicochemical
[6] = Total parenteral nutrition (TPN) with ester as energy substitute in rats; conditions: 9 days; for toxicity at the dosages tested: 2 g/kg body weight and 24 hours; for average growth per day during the whole of the test period: ester 2 g/kg body weight and 24 hours in place of equivalent glucose energy
Procedure: Sprague-Dawley male rats weighing 180-190 g were sur­gically fitted with a central vein catheter protected by a saddle (Roos et al, 1981). Total parenteral nutrition (TPN) was administered in accordance with the following standard formula: Fat: 8 g/kg body weight and 24 hours Nitrogen: 1,2 g/kg body weight and 24 hours Total energy supplied: 1257 kJ/kg body weight and 24 hours Liquid: 300 ml/kg body weight and 24 hours The glucose to fat ratio was 70-30 energy percent. The energy percentage obtained from the energy substitutes during the test period corresponded to about 5% NPC. The TPN-mixture was obtained by mixing Vamin^R 14 (a solution of essential and non-essential amino acids for paren­teral nutrient administration, retailed by KabiVitrum AB) with no electrolytes, glucose solution 50% and Intralipid^R 20% in suitable proportions and adding adequate quantities of electrolytes, trace minerals and vitamins. Subsequent to infusing the rats continuously for one week (20 hours/day), the animals were divided randomly into three groups, with 6 animals in each group. The animals of one group were administered with the same TPN-formula as that previously mentioned (the reference group). […] The compounds were given in a dosage of 2 g/kg body weight and 24 hours in a yield corres­ponding to equivalent glucose energy quantities. In other respects, the TPN-program or formula was the same as that for the reference group. The experiment was then continued for a further 9 days, during which the weights of the animals were recorded daily and urine collected and frozen. At the end of the test period, the rats were killed by heart puncture while under a pentobarbital anesthetic and an autopsy was performed on the rat carcasses with microscopic examination. The body organs were sent to a laboratory for pathological assay.

Row | SMILES | number of microorganisms ([1]; 2 hrs) | number of microorganisms ([1]; 20 hrs) | number of microorganisms ([2]; 2 hrs) | number of microorganisms ([2]; 20 hrs) | number of microorganisms (Cand. parapsil. (yeast); 2 hrs) | number of microorganisms (Cand. parapsil. (yeast); 20 hrs) | number of microorganisms (E. coli ATCC 8739; 2 hrs) | number of microorganisms (E. coli ATCC 8739; 20 hrs) | number of microorganisms (Enter. cloacae; 2 hrs) | number of microorganisms (Enter. cloacae; 20 hrs) | number of microorganisms (Klebs. pneum. ATCC 25955; 2 hrs) | number of microorganisms (Klebs. pneum. ATCC 25955; 20 hrs) | number of microorganisms (Penicillium sp. (mould); 2 hrs) | number of microorganisms (Penicillium sp. (mould); 20 hrs) | number of microorganisms (Proteus vulg. ATCC 13315; 2 hrs) | number of microorganisms (Proteus vulg. ATCC 13315; 20 hrs) | number of microorganisms ([3]; 2 hrs) | number of microorganisms ([3]; 20 hrs) | number of microorganisms (Serr. maresc. ATCC 14756; 2 hrs) | number of microorganisms (Serr. maresc. ATCC 14756; 20 hrs) | also measured
1 | CCOC(=O)CC(=O)CC(C)C [5-methyl-3-oxo-hexanoic acid ethyl ester] | 5012 | 5012 | 1995 | 0 | 3162 | 0 | 0 | 0 | 0 | 0 | 0 | 0 | 3981 | 316 | 0 | 0 | 0 | 0 | 0 | 0 | number of microorganisms (Staf. aureus ATCC 6535; 2 hrs): 0; number of microorganisms (Staf. aureus ATCC 6535; 20 hrs): 0; number of microorganisms (Staf. epiderm.; 2 hrs): 794; number of microorganisms (Staf. epiderm.; 20 hrs): 25; number of microorganisms (Ulocladium sp. (mould); 2 hrs): 5012; number of microorganisms (Ulocladium sp. (mould); 20 hrs): 0; number of microorganisms ([4]; 0.2%, after 2 hours): 100 per ml; number of microorganisms ([4]; 0.2%, after 20 hours): 0 per ml; number of microorganisms ([4]; 2%, after 2 hours): 0 per ml; number of microorganisms ([4]; 2%, after 20 hours): 0 per ml; energy density (Energy density): 29.24 kJ/g; emulsion stability, daily visual inspection ([5]; Example 33: pure ester in 20 percent emulsion, 5%, +5°C, 5 days): unstable; toxicity at the dosages tested [6]: non-toxic; average growth per day during the whole of the test period [6]: 2.8 ± 0.2 g
2 | CCOC(=O)CC(=O)C(C)C [4-methyl-3-oxo-pentanoic acid ethyl ester] | 3981 | 1000 | 200 | 0 | 1000 | 0 | 0 | 0 | 0 | 0 | 0 | 0 | 5012 | 0 | 0 | 0 | 0 | 0 | 0 | 0 | number of microorganisms (Staf. aureus ATCC 6535; 2 hrs): 0; number of microorganisms (Staf. aureus ATCC 6535; 20 hrs): 0; number of microorganisms (Staf. epiderm.; 2 hrs): 0; number of microorganisms (Staf. epiderm.; 20 hrs): 0; number of microorganisms (Ulocladium sp. (mould); 2 hrs): 3981; number of microorganisms (Ulocladium sp. (mould); 20 hrs): 0; number of microorganisms ([4]; 0.2%, after 2 hours): 10 per ml; number of microorganisms ([4]; 0.2%, after 20 hours): 0 per ml; number of microorganisms ([4]; 2%, after 1-5 minutes, +37°C, starting concentration about 5x10³): 100 per ml; number of microorganisms ([4]; 2%, after 2 hours): 0 per ml; number of microorganisms ([4]; 2%, after 20 hours): 0 per ml; energy density (Energy density): 27.94 kJ/g; emulsion quality (oil droplets, creaming, oil separation), daily inspection ([5]; Example 5: mother concentrate in Intralipid 10%, 0.3% addition, +5°C, 5 days): had no affect on the quality; pH ([5]; Example 34: 20 percent fat emulsion, 3% emulsion, end of 5-day period (reference emulsion pH=7.9)): 5.6; emulsion stability, daily visual inspection ([5]; Example 34: pure ester in 20 percent fat emulsion, 0.1% admixture, +5°C, 5 days): remained stable over the whole of the test period; emulsion stability, daily visual inspection ([5]; Example 34: pure ester in 20 percent fat emulsion, 3% admixture, +5°C, 5 days): remained stable for four days; toxicity at the dosages tested [6]: non-toxic; average growth per day during the whole of the test period [6]: 3.7 ± 0.8 g

— patent EP0366632A1, “Alternative energy substrates” (priority 1988, dated 1990)
